Consider 8 molecules from publication PMC6514680, “Labdane and Abietane Diterpenoids from Juniperus oblonga and Their Cytotoxic Activity” (Molecules, 2019).

Like-named read-outs stand apart in the source and are kept apart here.

The nature of data set [1]: MTT cytotoxicity assay, HeLa. Further details: cytotoxicity at 72 h / Cytotoxicity (%I) HeLa: dose or concentration left out as unconfirmed. The note with it: human, HeLa cells.
Description: (§1) MTT assay was used to measure the in vitro cytotoxicity of the isolated compounds. Human breast adenocarcinoma cell line (MCF-7), human liver hepatocellular carcinoma cell line (HepG2), and human cervical cancer cell line (HeLa) were cultured in Dulbecco’s modified Eagle’s medium (DMEM) and Roswell Park Memorial Institute medium (RPMI 1640), which was supplemented with 10% fetal bovine serum (FBS) at 37 °C in a humidified atmosphere of 5% CO2. The cells were cultured in 96-well plates for 24 h and then treated with test compounds at various concentrations (8–125 μM) for 72 h. After incubation for another 4 h with a 20 µL aliquot of the MTT [3-(4,5-dimethylthiazol-2-yl)-2,5-diphenyl tetrazolium bromide] solution (5 mg/mL in PBS), the medium was discarded, and 150 µL of DMSO was added to dissolve the produced formazan. The absorbance was measured at 490 nm and 570 nm using a microplate reader. Doxorubicin was used as a positive control. Each experiment was carried out in triplicate. The IC50 values were calculated using Graphpad Prism 5 software.
Data set [2] in a line: MTT cytotoxicity assay, MCF-7. Further details: cytotoxicity at 72 h: dose or concentration left out as unconfirmed. The note with it: human, MCF-7 cells. Background: Formazan colour is commonly taken as a measure of viable cells.
Description: as §1
Data set [3] in a line: MTT cytotoxicity assay, LO2. Further details: dose or concentration left out as unconfirmed. The note with it: human, LO2 normal liver cells.
Data set [4] can be described thus: MTT cytotoxicity assay, HepG2. Also noted: cytotoxicity at 72 h / Cytotoxicity (%I) HepG2: dose or concentration left out as unconfirmed. Conditions: human, HepG2 cells.
Description: as §1
For data set [5], the system named is three human tumor cell lines (HepG2, MCF-7, and HeLa). Kind of data set: MTT cytotoxicity assay, summary over three tumor cell lines.
For data set [6], the system named is human cervical carcinoma cancer cell line (HeLa). Also noted: Cytotoxicity (%I) HeLa: dose or concentration left out as unconfirmed.
Description: as §1
The subject of data set [7] is human hepatocellular carcinoma cell line (HepG2). Further details: Cytotoxicity (%I) HepG2: dose or concentration left out as unconfirmed.
Description: as §1
Data set [8] relates to human breast cancer cell line (MCF-7).
Description: as §1
For data set [9], the system named is normal human liver cell line (LO2). Also noted: dose or concentration left out as unconfirmed.
In data set [10] the test system is human cervical carcinoma cancer cell line (HeLa). Kind of data set: MTT cytotoxicity assay, HeLa. Further details: cytotoxicity at 72 h / Cytotoxicity (%I) HeLa: dose or concentration left out as unconfirmed. Conditions: HeLa; MTT.
Description: as §1
In data set [11] the test system is human breast cancer cell line (MCF-7). Kind of data set: MTT cytotoxicity assay, MCF-7. Further details: cytotoxicity at 72 h: dose or concentration left out as unconfirmed. The note with it: MCF-7; 4 mg/mL; MTT.
Description: as §1
For data set [12], the system named is normal human liver cell line (LO2). The data set can be described thus: MTT cytotoxicity assay, LO2. Further details: dose or concentration left out as unconfirmed. Conditions: LO2 normal liver cells; MTT.
In data set [13] the test system is human hepatocellular carcinoma cell line (HepG2). Kind of data set: MTT cytotoxicity assay, HepG2. Further details: cytotoxicity at 72 h / Cytotoxicity (%I) HepG2: dose or concentration left out as unconfirmed. The note with it: HepG2; MTT.
Description: as §1

For the molecule `C=C1CCC2C(C)(C(=O)O)CCCC2(C)C1C=CC(C)=O` [Compound 1, (4R,5S,9S,10R)-13-des-ethyl-13-oxolabda-8(17),11E-dien-19-oic acid], the cytotoxicity at 72 h came to 26.4% in data set [1], 28.4% in data set [2], 20.6% in data set [3] and 18.4% in data set [4].

A word on the IC50: it is the concentration that gives 50% inhibition. On to sempervirol [Compound 10], for which the cytotoxicity in words entry in data set [5] is “weaker activity”. In data set [6], the “Cytotoxicity (%I) HeLa” value turned out to be 63.4% and it took 56.9 ± 2.39 µM to reach half-maximal inhibition (IC50). Besides, in [7], the “Cytotoxicity (%I) HepG2” value amounted to 48.67% and 64.9 ± 2.64 µM corresponded to half-maximal inhibition (IC50). In [8], the “Cytotoxicity (%I @ 4 mg/mL) MCF-7” value is 43.4% and the half-maximal inhibitory concentration (IC50) amounted to 80 ± 1.2 µM. Besides, the “Cytotoxicity (%I) LO2” value in [9] came out at 19.08%.

For the molecule `C=C1CC[C@@H]2[C@](C)(CCC[C@]2(C)C(=O)O)[C@H]1C/C=C(/C)C=O` [Compound 2, 15-nor-14-oxolabda-8(17),12Z-dien-19-oic acid], the cytotoxicity at 72 h in [1] amounted to 23.9%; in data set [2] it was 21.1%; in [3], 10.6%; in data set [4], 16.1%.

Consider `O=c1ccc2ccc(O)cc2o1` [Compound 13, umbelliferone], for which the cytotoxicity at 72 h in data set [1] was 3.6%; in data set [2], 18%; in data set [3], 26.6%; in data set [4], 32.7%.

With `COc1cccc2c1C(=O)c1c(O)c3c(c(O)c1C2=O)C[C@@](O)(C(=O)CO)C[C@@H]3O[C@H]1C[C@H](N)[C@H](O)[C@H](C)O1` [Doxorubicin, reference compound], the IC50 at 72 h worked out at 3.64 ± 1.37 µM in data set [1], 3.44 ± 1.59 µM in data set [2] and 3.18 ± 1.19 µM in [4]. For the same molecule, the cytotoxicity at 72 h stood at 49.5% in [1], 46.5% in [2], 46.7% in data set [3] and 42.2% in data set [4].

For `CC(C)c1cc2c(cc1O)C1(C)CCCC(C)(C)C1=C(O)C2=O` (centres unmarked) [Compound 6, 6,12-dihydroxyabieta-5,8,11,13-tetraen-7-one], the cytotoxicity in words entry in data set [5] (HepG2, MCF-7 and HeLa, MTT) is “moderate cytotoxicity”. Besides, the IC50 in data set [5] (Homo sapiens, read-out: IC50 values, range over all three cell lines) lay in the range of 24.4 to 58.4 µM. In addition, the results for the 50% inhibitory concentration (IC50) at 72 h in data set [1], in [2] and in data set [4] were 24.4 ± 2.05 µM, 58.4 ± 2.45 µM and 48.7 ± 1.31 µM, respectively. Also, the cytotoxicity at 72 h in data set [1] amounted to 83.8%; in data set [2], 84%; in data set [3], 27.8%; in data set [4], 86.6%.

On to helioxanthin [Compound 5], for which the “Cytotoxicity (%I) HeLa” value in data set [10] amounted to 0.22%. Further, in [11], the “Cytotoxicity (%I @ 4 mg/mL) MCF-7” value was found to be 10.09%. For the same molecule, the “Cytotoxicity (%I) LO2” value in data set [12] stood at 9.05%. In data set [13], the “Cytotoxicity (%I) HepG2” value amounted to 0.11%.

As to `CC(C)c1cc2c(cc1O)[C@@]1(C)CCCC(C)(C)[C@@H]1CC2=O` [Compound 3, sugiol], the cytotoxicity at 72 h in data set [1] worked out at 12.3%; in data set [2], 9.2%; in data set [3], 26.6%; in [4], 35%.
